Assay results: patent publication US9073880B2, “2-(2-phenylethenyl) 1,3-benzodiazepine derivatives useful for the treatment of cancer” (Yissum Research Development Company of the Hebrew …, priority 2010, dated 2015)

Key:
Format in all cases: cell-based
[1] = test system: human glioblastoma U138MG cells; assay: Cell proliferation, U138MG (Example 4); details: U138-MG, compound in 2-hydroxypropyl-β-cyclodextrin
Procedure: (§1) Human ovary cancer A2780 cells lines were seeded at a density of 5000 cells/well, human melanoma A375 cells were plated at a density of 2,500 cells/well, human colon carcinoma HCT15 cells were plated at a density of 3,000 cells/well, human prostate carcinoma PC3 cells were plated at a density of 1,500 cells/well, human breast carcinoma MCF7 cells were plated at a density of 5,000 cells/well, human breast carcinoma MDA MB 468 cells were plated at a density of 6,000 cells/well, human myeloma U266, RPMI8226 and CAG cells were plated at a density of 10,000 cells/well. All cells were plated in 96-well plates in 90 μl growth medium containing 10% FCS, 100 units/ml penicillin and 100 μg/ml streptomycin. Compound 3 was added a day later in […] of 1% DMSO in DDW to obtain final concentrations of 0, 0.1, 0.3, 1, 3, and 10 μM. The final concentration of DMSO (0.1% DMSO) was kept constant in all samples. Following exposure of the cells to compound 3 for 72 hours at 37° C., adhered cells were fixed in 0.5% gluteraldehyde in medium for 10 min, washed three times with DDW, once with 0.1M sodium borate buffer pH 8.5 and stained with 1% methylene blue dissolved in 0.1M borate buffer solution for 60 min. Excess dye was washed out and cell-bound dye was eluted with 200 μl/well of 0.1M HCl. The optical density values were read at 630 nm in ELISA plate reader. Non-adhered cells were exposed to WST-1 reagent for 5 hours following 72 hours treatment with the inhibitors, and optical density values were read at 630 nm in ELISA plate reader. The data was analyzed in Microsoft Excel, using the vehicle control as 100% proliferation. The assays were performed in triplicates. The values of IC50 were derived from the dose-dependent growth curves obtained.
(§2) Cell proliferation assay was performed as described in Example 2. […]

[2] = test system: human multiple myeloma MM1S cells; assay: Cell proliferation, MM1S (Example 4); details: MM1.S, compound in 2-hydroxypropyl-β-cyclodextrin
Procedure: as §1
(§3) Cell proliferation assay was performed as described in Example 2. The following cell line were plated in 96-well plates in 90 μl growth medium containing 10% FCS, 100 units/ml penicillin and 100 μg/ml streptomycin: human ovary cancer A2780 cells (4500 cells/well), human melanoma A375 (1500 cells/well) and YUMAC (2500 cells/well) cells, human colon carcinoma HCT15 (3000 cells/well) and HCT116 (2000 cells/well) cells, human prostate carcinoma PC3 (3000 cells/well), PC3MM2 (3500 cells/well) and DU145 (300 cells/well) cells, human hepatocarcinoma HepG2 (3000 cells/well), human Ewing sarcoma SK-ES-1 (4,500 cells/well), human glioblastoma U138MG (2,000 cells/well), human breast cancer T47D (4000 cells/well) and MDA-MB-468 (6000 cells/well) cells, human small cell lung carcinoma NCI-H1975 (5000 cells/well) cells, human osteosarcoma Saos-2 (5000 cells/well) cells, human pancreatic cancer ASPC (2500 cells/well) cells, human bladder carcinoma T24P (1000 cells/well) cells, human gastric cancer NCI-N87 (5000 cells/well) cells, human lymphoma KARPAS (5,000 cells/well) cells, human leukemia K562 (5,000 cells/well) cells and human multiple myeloma MM1S (10,000 cells/well), U266 (10,000 cells/well) and CAG (5,000 cells/well). Compounds 2-5 and 7-8 were added a day later in 10 μl of 0.7% 2-hydroxypropyl-β-cyclodextrin to obtain final concentrations of 0, 0.1, 0.3, 1, 3 and 10 μM.
Compounds 2-5 and 7-8 of the present invention were tested for their inhibitory potential in cell proliferation assay. Human ovary cancer A2780 cells, human melanoma A375 and YUMAC cells, human colon carcinoma HCT15 and HCT116 cells, human prostate carcinoma PC3, PC3MM2 and DU145 cells, human hepatocarcinoma HepG2 cells, human Ewing sarcoma SK-ES-1 cells, human glioblastoma U138MG cells, human breast cancer T47D and MDA-MB-468 cells, human small cell lung carcinoma NCI-H1975 cells, human osteosarcoma Saos-2 cells, human pancreatic cancer ASPC cells, human bladder cancer T24P cells, human gastric cancer cells, human lymphoma KARPAS cells, human leukemia K562 cells, and human multiple myeloma MM1S, CAG and U266 cells, were exposed to increasing concentrations of compounds 2-5 and 7-8. […]

[3] = test system: human prostate carcinoma PC3MM2 cells; assay: Cell proliferation, PC3MM2 (Example 4); details: PC3MM2, prostate cancer, compound in 2-hydroxypropyl-β-cyclodextrin
Procedure: as §1, §2

human NCI-H1975 cells = assay: Cell proliferation, NCI-H1975 (Example 4); details: NCI-H1975, SCLC, compound in 2-hydroxypropyl-β-cyclodextrin
Procedure: as §1, §2

[4] = test system: human breast cancer T47D cells; assay: Cell proliferation, T47D (Example 4); details: compound in 2-hydroxypropyl-β-cyclodextrin
Procedure: as §1, §2

[5] = test system: human prostate carcinoma DU145 cells; assay: Cell proliferation, DU145 (Example 4); details: DU-145, DU145, prostate cancer, compound in 2-hydroxypropyl-β-cyclodextrin
Procedure: as §1, §2

[6] = test system: human pancreatic cancer ASPC cells; assay: Cell proliferation, ASPC (Example 4); details: compound in 2-hydroxypropyl-β-cyclodextrin
Procedure: as §1, §3
(§4) Compounds 2-5 and 7-8 of the present invention were tested for their inhibitory potential in cell proliferation assay. […]

[7] = test system: human colon carcinoma HCT116 cells; assay: Cell proliferation, HCT116 (Example 4); details: HCT-116, HCT116, colon cancer, compound in 2-hydroxypropyl-β-cyclodextrin
Procedure: as §1, §3, §4

Row | SMILES | IC50 [1] [nM] | IC50 [2] [nM] | IC50 [3] [nM] | IC50 (human NCI-H1975 cells) [nM] | IC50 [4] [nM] | IC50 [5] [nM] | IC50 [6] [nM] | IC50 [7] [nM]
1 | O=c1c(O)cc2cnc(/C=C/c3cc(O)c(O)c(Br)c3)sc-2c1O [Compound 3] | 300 | 500 | 2300 | 1000 | 1500 | 2300 | 13100 | 500
2 | O=c1c(O)cc2cnc(/C=C/c3ccc(O)c(O)c3Br)sc-2c1O [Compound 5] | 300 | 600 | 1800 | 800 | 1800 | 2700 | 8200 | 400
